Literature values in US8197801B2, “Use of compounds for the preservation of the human or animal body and compositions comprising same” (Arkema France, priority 2006, dated 2012).

Conditions: general statement

| Compound | Toxicity relative to methanol and formaldehyde |
| --- | --- |
| CCCCOCOCCCC [butylal, C4H9—(OCH2)—OC4H9] | much less toxic than methanol and formaldehyde |
| CCOCOCC [ethylal, C2H5—(OCH2)—OC2H5] | much less toxic than methanol and formaldehyde |
| COCOC [methylal, CH3—(OCH2)—OCH3] | much less toxic than methanol and formaldehyde |
